Laboratory results taken from ChEMBL document CHEMBL3045002, “3,4-Dihydropyrimidin-2(1H)-one derivatives: Organocatalysed microwave assisted synthesis and evaluation of their antioxidant activity” (Med Chem Res, 2012).
Converted amounts (≈) assume the structure as drawn.

Columns and labels:
Type in all cases: functional
[1] = Antioxidant activity assessed as Fe2+ chelating activity after 10 min by spectrophotometry
[2] = Antioxidant activity in phosphate buffer at pH 6.6 assessed as reducing power measuring conversion of potassium ferricyanide to ferrous form after 10 min by spectrophotometry
[3] = Antioxidant activity assessed as DPPH scavenging activity after 2 hr by spectrophotometry

| EC50 [1] [µg/mL] | EC50 [2] [µg/mL] | IC50 [3] [µg/mL] | SMILES |
| --- | --- | --- | --- |
| 2.23 (≈ 9.06 µM) | 97.56 (≈ 396 µM) | 28.43 (≈ 115 µM) | COC(=O)C1=C(C)NC(=O)NC1c1ccccc1 (stereo not drawn) |
| 0.88 (≈ 2.87 µM) | 49.38 (≈ 161 µM) | 3.65 (≈ 11.9 µM) | CCOC(=O)C1=C(C)NC(=O)NC1c1ccc(O)c(OC)c1 (stereo not drawn) |
| 0.89 (≈ 3.22 µM) | 61.4 (≈ 222 µM) | 2.71 (≈ 9.81 µM) | CCOC(=O)C1=C(C)NC(=O)NC1c1ccc(O)cc1 (stereo not drawn) |
| 0.9 (≈ 3.08 µM) | 57.14 (≈ 195 µM) | 5.02 (≈ 17.2 µM) | COC(=O)C1=C(C)NC(=O)NC1c1ccc(O)c(OC)c1 (stereo not drawn) |
| 0.79 (≈ 3.01 µM) | 67 (≈ 255 µM) | 3.14 (≈ 12 µM) | COC(=O)C1=C(C)NC(=O)NC1c1ccc(O)cc1 (stereo not drawn) |
| 1.6 (≈ 5.49 µM) | 126.35 (≈ 434 µM) | 27.08 (≈ 93 µM) | COC(=O)C1=C(C)NC(=O)NC1c1cccc([N+](=O)[O-])c1 (stereo not drawn) |
| 1.04 (≈ 4 µM) | 158.9 (≈ 610 µM) | 25.04 (≈ 96.2 µM) | CCOC(=O)C1=C(C)NC(=O)NC1c1ccccc1 (stereo not drawn) |
| – | 10 (≈ 34.5 µM) | 2.12 (≈ 7.3 µM) | Oc1cc(O)c2c(c1)OC(c1ccc(O)c(O)c1)C(O)C2 (stereo not drawn) [CATECHIN] |

The next lines start with the compound.

| SMILES | EC50 [1] [µg/mL] | EC50 [2] [µg/mL] | IC50 [3] [µg/mL] |
| --- | --- | --- | --- |
| COC(=O)C1=C(C)NC(=O)NC1c1ccc(OC)cc1 (stereo not drawn) | 1.92 (≈ 6.95 µM) | 206 (≈ 746 µM) | 31.69 (≈ 115 µM) |
| CCOC(=O)C1=C(C)NC(=O)NC1c1cccc([N+](=O)[O-])c1 (stereo not drawn) | 1.16 (≈ 3.8 µM) | 339.06 (≈ 1110 µM) | 27.73 (≈ 90.8 µM) |
| CCOC(=O)C1=C(C)NC(=O)NC1c1ccc([N+](=O)[O-])cc1 (stereo not drawn) | 1.86 (≈ 6.09 µM) | 238.09 (≈ 780 µM) | 33.29 (≈ 109 µM) |
| COC(=O)C1=C(C)NC(=O)NC1c1ccc([N+](=O)[O-])cc1 (stereo not drawn) | 1.71 (≈ 5.87 µM) | 170.02 (≈ 584 µM) | 27.78 (≈ 95.4 µM) |
| CCOC(=O)C1=C(C)NC(=O)NC1c1ccc(OC)cc1 (stereo not drawn) | 1.55 (≈ 5.34 µM) | 171.12 (≈ 589 µM) | 48.45 (≈ 167 µM) |
| Cc1cc(C(C)(C)C)c(O)c(C(C)(C)C)c1 [BUTYLATED HYDROXYTOLUENE] | – | 20 (≈ 90.8 µM) | 2.18 (≈ 9.89 µM) |
| O=C(O)CC(O)(CC(=O)O)C(=O)O [CITRIC ACID] | 0.074 (≈ 0.385 µM) | – | – |
| O=C(O)c1cc(O)c(O)c(O)c1 [GALLIC ACID] | – | 5.25 (≈ 30.9 µM) | 2.06 (≈ 12.1 µM) |
